Source: patent US8163909B2, “Substituted hydroxyethyl amine compounds as beta-secretase modulators and methods of use” (Amgen Inc., priority 2007, dated 2012)
Read-outs that look alike come from different tables or passages of the source.

Columns and labels:
[1] = target: Beta Secretase enzyme (BACE) (Homo sapiens, UniProt P56817); test: In vitro enzymatic BACE FRET (fluorescence resonance energy transfer) assay; assay type: biochemical;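 note: fluorescence read after 1 h with 50 nM quenched peptide substrate spanning the BACE cleavage site, in pH 4.2 acetate buffer containing 10% DMSO and nonionic detergent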
Beta Secretase enzyme (BACE), sequence (P56817 46-501): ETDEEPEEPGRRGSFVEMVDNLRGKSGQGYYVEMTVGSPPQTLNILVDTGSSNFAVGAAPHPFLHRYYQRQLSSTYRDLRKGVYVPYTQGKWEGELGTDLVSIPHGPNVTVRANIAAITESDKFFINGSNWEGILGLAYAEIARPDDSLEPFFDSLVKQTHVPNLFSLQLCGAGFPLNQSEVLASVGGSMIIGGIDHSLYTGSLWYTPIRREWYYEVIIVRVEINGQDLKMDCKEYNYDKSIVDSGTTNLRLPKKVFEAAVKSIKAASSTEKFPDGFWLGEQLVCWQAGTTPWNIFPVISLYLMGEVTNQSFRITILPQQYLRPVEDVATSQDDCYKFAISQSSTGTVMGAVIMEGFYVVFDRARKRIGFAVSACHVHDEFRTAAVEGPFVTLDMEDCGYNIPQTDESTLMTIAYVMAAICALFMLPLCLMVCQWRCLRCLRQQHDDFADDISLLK

[2] = tested on: Aβ40 in conditioned medium of cells stably expressing Amyloid Precursor Protein (APP); test: In vitro BACE cell-based assay (Aβ40 in conditioned medium, sandwich ELISA); details: Homo sapiens;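 note: compounds added as a dilution series, secreted peptide quantified by europium time-resolved fluorescence readout, potency fitted from percent of control versus compound concentration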
[3] = tested on: Abeta peptide; test: In vivo inhibition of beta-secretase (reduction of Abeta peptide in brain and cerebrospinal fluid); parameters: species or system rat; details: Rattus norvegicus, po, 4 h;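 note: abeta peptide quantified by sandwich ELISA with electrochemiluminescence readout in rat brain supernatant or CSF, relative to vehicle-dosed control animals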
[4] = target: CYP3A4 (CYP3A) (Homo sapiens, UniProt P08684); test: in vitro; details: microsomes, pH 7.4;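 note: inhibition of CYP3A-mediated 1-hydroxymidazolam formation after 10 min incubation with NADPH, quantified by HPLC MS relative to metabolite produced without test compound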
CYP3A4 (CYP3A), sequence (P08684 2-503): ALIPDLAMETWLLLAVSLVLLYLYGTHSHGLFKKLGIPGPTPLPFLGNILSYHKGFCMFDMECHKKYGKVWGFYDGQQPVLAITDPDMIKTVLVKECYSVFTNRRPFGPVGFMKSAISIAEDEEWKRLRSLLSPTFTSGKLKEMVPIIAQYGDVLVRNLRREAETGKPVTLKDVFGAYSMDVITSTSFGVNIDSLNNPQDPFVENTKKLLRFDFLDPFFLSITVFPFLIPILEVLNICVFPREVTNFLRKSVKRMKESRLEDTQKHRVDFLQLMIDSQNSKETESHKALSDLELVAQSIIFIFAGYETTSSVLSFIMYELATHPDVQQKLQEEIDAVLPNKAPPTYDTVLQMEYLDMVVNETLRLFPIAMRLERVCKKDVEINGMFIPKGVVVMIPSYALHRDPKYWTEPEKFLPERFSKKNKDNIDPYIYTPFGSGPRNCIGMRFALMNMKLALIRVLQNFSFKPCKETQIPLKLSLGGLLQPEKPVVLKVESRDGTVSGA

[5] = Microsomal stability assay, rat liver microsomes;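 note: rat liver microsomes (0.25 mg/mL) with about 1 µM compound plus 1 mM NADPH, pH 7.4, 37 °C for 30 min, parent left measured by LC-MS/MS against 0 min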
[6] = Microsomal stability assay, human liver microsomes;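 note: pooled human liver microsomes at 0.25 mg/mL with 1 µM compound and NADPH at 37 °C, pH 7.4, for 30 min, unchanged parent quantified by LC-MS/MS against the 0 min sample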
[7] = target: CYP2D6 (Homo sapiens, UniProt P10635); test: CYP2D6 inhibition assay (bufuralol, pooled human liver microsomes)
CYP2D6, sequence (P10635 whole entry): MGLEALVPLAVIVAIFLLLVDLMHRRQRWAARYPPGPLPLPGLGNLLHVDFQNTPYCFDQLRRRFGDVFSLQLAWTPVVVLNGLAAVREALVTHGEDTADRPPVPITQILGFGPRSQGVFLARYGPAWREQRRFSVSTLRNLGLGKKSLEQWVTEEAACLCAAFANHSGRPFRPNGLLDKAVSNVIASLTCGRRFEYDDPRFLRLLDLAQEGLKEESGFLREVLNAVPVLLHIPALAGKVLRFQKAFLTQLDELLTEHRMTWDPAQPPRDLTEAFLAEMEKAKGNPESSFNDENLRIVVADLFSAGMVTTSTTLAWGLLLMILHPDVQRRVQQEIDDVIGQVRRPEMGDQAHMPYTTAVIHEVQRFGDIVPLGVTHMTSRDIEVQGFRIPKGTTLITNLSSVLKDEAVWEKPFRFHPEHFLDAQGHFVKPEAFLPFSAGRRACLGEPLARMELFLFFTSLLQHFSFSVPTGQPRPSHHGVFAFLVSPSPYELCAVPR

[8] = BACE enzyme assay, IC50's in uM, read-out: BACE1 FRET assay
[9] = HEK293, cell-based assay, HEK cells, IC50's in uM, read-out: HEK cell assay
[10] = rat brain, orally administered at 30 mg/kg dose, measured after 4 hours, read-out: percent reduction of abeta peptide in the brain of the rat
[11] = 2D6 IC50, CYP enzyme inhibition
[12] = BACE enzyme assay IC50, read-out: BACE1 FRET assay
[13] = HEK293, HEK cell-based assay IC50, read-out: HEK cell assay
[14] = rat cerebrospinal fluid, orally administered at 30 mg/kg dose, measured after 4 hours, read-out: percent reduction of abeta peptide in the cerebrospinal fluid of the rat
[15] = 2D6 IC50 (uM), CYP2D6 inhibition
[16] = HEK293, HEK cell-based assay, IC50's in uM, read-out: HEK cell assay
[17] = 2D6 IC50 (uM), CYP enzyme inhibition
[18] = BACE enzyme assay, read-out: BACE1 FRET assay
[19] = HEK293, HEK cells, read-out: HEK cell assay
[20] = read-out: BACE1 FRET assay (IC50)
[21] = HEK293, HEK cells, read-out: HEK cell assay (IC50)

SMILES | IC50 [1, 8] [µM] | IC50 [2, 9] [µM] | IC50 [4] [nM] | RLM ([5]; rat liver microsomal data) [µL/min/mg] | HLM ([6]; human liver microsomal data) [µL/min/mg] | IC50 [7, 11] [µM] | inhibition in vivo at 30 mg/kg [3, 14] [%] | further results
CC(C)(C)Cc1cnc2c(c1)[C@@H](NC[C@@H](O)[C@H](Cc1cc(F)cc(-c3nccs3)c1)NC(=O)C1CCC1)CC1(CCC1)O2 [Example 875] | 0.006 | 0.02 | 200 | 81 | 65 | 0.3 |  | inhibition in vivo at 30 mg/kg [3, 10]: 5 to 80%
COCC(=O)N[C@@H](Cc1ccc(-c2nccs2)c(F)c1)[C@H](O)CN[C@H]1CC2(CCC2)Oc2ncc(CC(C)(C)C)cc21 [Example 730] |  |  | ≤ 30 |  |  |  | 10 to 80 | IC50 [1, 12]: 0.039 µM; IC50 [2, 13]: 0.027 µM; RLM ([5]; rat liver microsomes): 74 µL/min/mg; HLM ([6]; human liver microsomes): 57 µL/min/mg; IC50 [7, 15]: 0.7 µM
C#Cc1cccc(C[C@H](NC(=O)C(OC)OC)[C@H](O)CN[C@H]2CC3(CCC3)Oc3ncc(CC(C)(C)C)cc32)c1 [Example 844] | 0.005 |  | 100 | 44 | 32 |  | ≥ 50 | IC50 [2, 16]: 0.006 µM; IC50 [7, 17]: 1.5 µM
COCC(=O)N[C@@H](Cc1cc(F)cc(F)c1)[C@H](O)CN[C@H]1CC2(CCC2)Oc2c1cc(CC(C)(C)C)nc2-c1ccncc1 [Example 528] |  |  | 100 | 72 | 19 |  | 10 to 80 | IC50 [1, 18]: 0.01 µM; IC50 [2, 19]: 0.023 µM; IC50 [7, 17]: 1.3 µM
COCC(=O)N[C@@H](Cc1ccncc1)[C@H](O)CN[C@H]1CC2(CCC2)Oc2c(-c3ccncc3)cc(CC(C)C)cc21 [Example 628] |  |  | 100 |  |  |  | 10 to 80 | IC50 [1, 20]: 0.045 µM; IC50 [2, 21]: 0.007 µM; RLM ([5]; rat liver microsomes): 239 µL/min/mg; HLM ([6]; human liver microsomes): 94 µL/min/mg; IC50 ([7]; 2D6 IC50, CYP2D6 inhibition): 1.9 µM
COC(OC)C(=O)N[C@@H](Cc1cccc(-c2ncco2)c1)[C@H](O)CN[C@H]1CC2(CCC2)Oc2ncc(CC(C)(C)C)cc21 [Example 826, N-((1S,2R)-3-(((4′S)-6′-(2,2-dimethylpropyl)-3′,4′-dihydrospiro[cyclobutane-1,2′-pyrano[2,3-b]pyridin]-4′-yl)amino)-2-hydroxy-1-(3-(1,3-oxazol-2-yl)benzyl)propyl)-2,2-dimethoxyacetamide] | 0.012 |  | 200 | 55 | 66 |  | 10 to 80 | IC50 [2, 16]: 0.013 µM; inhibition in vivo at 30 mg/kg [3, 10]: 5 to 80%; IC50 [7, 17]: 0.9 µM
COCC(=O)N[C@@H](Cc1cc(F)cc(F)c1)[C@H](O)CN[C@H]1CC2(CCC2)Oc2c1cc(CC(C)(C)C)nc2-c1nccn1C [Example 596] |  |  | 100 |  |  |  | 10 to 80 | IC50 [1, 20]: 0.041 µM; IC50 [2, 21]: 0.009 µM; RLM ([5]; rat liver microsomes): 39 µL/min/mg; HLM ([6]; human liver microsomes): 26 µL/min/mg; IC50 ([7]; 2D6 IC50, CYP2D6 inhibition): 2.9 µM
CO[C@H](C)C(=O)N[C@@H](Cc1cccc(F)c1)[C@H](O)CN[C@H]1CC2(CCC2)Oc2c1cc(CC(C)C)cc2-n1ccnc1 [Example 521] |  |  | 100 | 142 | 27 |  | 10 to 80 | IC50 [1, 18]: 0.019 µM; IC50 [2, 19]: 0.015 µM; IC50 [7, 17]: 1.9 µM
C#Cc1ccc(F)c(C[C@H](NC(=O)[C@@H](C)OC)[C@H](O)CN[C@H]2CC3(CCC3)Oc3ncc(CC(C)(C)C)cc32)c1 [Example 902] | 0.006 | 0.026 | 100 | 70 | 36 | 0.9 | 10 to 80 | 
COCC(=O)N[C@@H](Cc1cc(F)cc(F)c1)[C@H](O)CN[C@H]1CC2(CCC2)Oc2c(-c3ccncc3)cc(CC(C)(C)C)cc21 [Example 488] |  |  | 100 | 82 | 31 |  | 10 to 80 | IC50 [1, 18]: 0.009 µM; IC50 [2, 19]: 0.01 µM; inhibition in vivo at 30 mg/kg [3, 10]: 5 to 80%; IC50 [7, 17]: 1.6 µM
COCC(=O)N[C@@H](Cc1cccc(-n2ccnc2)c1)[C@H](O)CN[C@H]1CC2(CCC2)Oc2ncc(CC(C)(C)C)cc21 [Example 698, N-((1S,2R)-3-(((4′S)-6′-(2,2-dimethylpropyl)-3′,4′-dihydrospiro[cyclobutane-1,2′-pyrano[2,3-b]pyridin]-4′-yl)amino)-2-hydroxy-1-(3-(1H-imidazol-1-yl)benzyl)propyl)-2-methoxyacetamide] |  |  | ≤ 30 |  |  |  | 10 to 80 | IC50 [1, 12]: 0.026 µM; IC50 [2, 13]: 0.009 µM; RLM ([5]; rat liver microsomes): 33 µL/min/mg; HLM ([6]; human liver microsomes): 58 µL/min/mg; IC50 [7, 15]: 0.1 µM
CNc1nc(CC(C)(C)C)cc2c1OC1(CCC1)C[C@@H]2NC[C@@H](O)[C@H](Cc1cc(F)cc(-c2nccs2)c1)NC(=O)COC [Example 847] | 0.044 | 0.01 | 400 | 201 | 102 | 0.8 | ≥ 50 | inhibition in vivo at 30 mg/kg [3, 10]: 5 to 80%
COCC(=O)N[C@@H](Cc1ccc(F)c(-c2nccs2)c1)[C@H](O)CN[C@H]1CC2(CCC2)Oc2ncc(CC(C)(C)F)cc21 [Example 743] |  |  | ≤ 30 |  |  |  | 10 to 80 | IC50 [1, 12]: 0.016 µM; IC50 [2, 13]: 0.037 µM; inhibition in vivo at 30 mg/kg [3, 10]: ≥ 30%; RLM ([5]; rat liver microsomes): 31 µL/min/mg; HLM ([6]; human liver microsomes): 22 µL/min/mg; IC50 [7, 15]: 0.6 µM
COCC(=O)N[C@@H](Cc1cc(-c2nccs2)ccc1F)[C@H](O)CN[C@H]1CC2(CCC2)Oc2ncc(CC(C)(C)C)cc21 [Example 900] |  |  | ≥ 27000 |  |  | ≥ 27 | 10 to 80 | 
CC(C)C(=O)N[C@@H](Cc1cc(F)cc(-c2nccs2)c1)[C@H](O)CN[C@H]1CC2(CCC2)Oc2ncc(CC(C)(C)C)cc21 [Example 883] | 0.021 | 0.021 | 100 | 52 | 54 |  | 10 to 80 | 
C#Cc1cccc(C[C@H](NC(=O)CC)[C@H](O)CN[C@H]2CC3(CCC3)Oc3ncc(CC(C)(C)C)cc32)c1 [Example 873] | 0.003 | 0.007 |  | 29 | 35 | 0.8 | ≥ 50 | 
CC(C)(C)Cc1cnc2c(c1)[C@@H](NC[C@@H](O)[C@H](Cc1cc(F)cc(-c3nccs3)c1)NC(=O)CF)CC1(CCC1)O2 [Example 878] | 0.004 | 0.022 | 200 | 65 | 72 |  |  | inhibition in vivo at 30 mg/kg ([3]; read-out: percent reduction of abeta peptide in the brain of the rat): 5 to 80%
C#Cc1cc(C[C@H](NC(=O)C(OC)OC)[C@H](O)CN[C@H]2CC3(CCC3)Oc3ncc(CC(C)(C)C)cc32)ccc1F [Example 861] | 0.008 | 0.018 |  | 64 | 28 | 2.1 | ≥ 50 | 
